Experimental data taken from patent US20230059009A1, “INHIBITORS OF LIN28 AND METHODS OF USE THEREOF” (The Regents of the University of California, priority 2019, published 2023).

Tests used:
[1] = test system: HCT-116; assay: Cell viability, CTG, HCT-116; type: cell-based; conditions: Homo sapiens, HCT-116 (Colon)
Experimental: (§1) To measure cell viability, cell titer glow (CTG, Promega CellTiter-Glo 2.0 Assay) and MTT assays (SigmaAldrich, Cell Proliferation Kit I) were performed. Briefly, cells were serum starved overnight prior to seeding in 96-well plates. Following 24 h incubation, cells were treated with increasing concentrations of JGJ compounds for 96 hr. At assay read-out, CellTiter-Glo reagent was added and luminescence was measured after 10-minutes incubation at room temperature. For the MTT assay, MTT labeling reagent was added and incubated for 4 h. Subsequently, medium was removed and 50 μL DMSO was added to solubilize the crystals, and absorbance was measured at 570 nm. Cell viability was calculated as (Sample-Background)/(Control-Background). Current standard of care drugs, Enzalutamide, Palbociclib and Cetuximab were used as comparative controls.

[2] = test system: SW948; assay: Cell viability, CTG, SW948; type: cell-based; conditions: Homo sapiens, SW948 (Colon)
Experimental: as §1

[3] = test system: MYC-driven cancers; assay: Cell viability and cell counting assays in cancer cells; type: cell-based; conditions: TNBC, CRPC, lung and colorectal adenocarcinoma cells
Experimental: (§2) To test whether LN1632 and novel analogs thereof affect cancer cell growth, cell viability and cell counting assays in TNBC (FIG. 14B-D), castration resistant prostate cancer cells (CRPC, FIG. 15A-C) and colorectal cancer cells (CRC, FIG. 15A-C) were performed.
as §1

[4] = test system: LNCaP; assay: Cell viability, MTT assay, LNCaP; type: cell-based; conditions: Homo sapiens, LNCaP (Prostate)
Experimental: as §1, with “(Sample-Background)/(Control-Background).” for “(Sample-Background)/(Control-Background). Current standard of care drugs, Enzalutamide, Palbociclib and Cetuximab were used as comparative controls.”

[5] = test system: SW480; assay: Cell viability, CTG, SW480; type: cell-based; conditions: Homo sapiens, SW480 (Colon)
Experimental: as §1, with “(Sample-Background)/(Control-Background).” for “(Sample-Background)/(Control-Background). Current standard of care drugs, Enzalutamide, Palbociclib and Cetuximab were used as comparative controls.”

[6] = test system: SW620; assay: Cell viability, MTT assay, SW620; type: cell-based; conditions: Homo sapiens, SW-620, SW620 (Colon)
Experimental: as §1

[7] = test system: mature let-7 miRNAs; assay: Dual luciferase reporter assay of mature let-7 miRNAs in HepG2 cells; type: cell-based; conditions: 3-10 μM, compared with LN1632
Experimental: (§3) To test the structure-activity relationship, 39 LN1632-related analogs (JGJ001-39) were synthesized and their potency and specificity to inhibit LIN28B-RNA binding activity and upregulate mature let-7 miRNA levels was measured. […] The dual luciferase reporter assay was performed as previously described (89).

[8] = test system: SW480; assay: Cell viability, MTT assay, SW480; type: cell-based; conditions: Homo sapiens, SW480 (Colon)
Experimental: as §1

[9] = test system: SW620; assay: Cell viability, CTG, SW620; type: cell-based; conditions: Homo sapiens, SW-620, SW620 (Colon)
Experimental: as §1

[10] = test system: 22RV1; assay: Cell viability, CellTiter-Glo (CTG), 22RV1; type: cell-based; conditions: Homo sapiens, 22RV1 (Prostate), 96 hr
Experimental: as §1, with “(Sample-Background)/(Control-Background).” for “(Sample-Background)/(Control-Background). Current standard of care drugs, Enzalutamide, Palbociclib and Cetuximab were used as comparative controls.”

[11] = test system: MDA-MB231; assay: Cell viability, CTG, MDA-MB231; type: cell-based; conditions: Homo sapiens, MDA-MB-231, MDA-MB231 (Breast)
Experimental: as §1

[12] = test system: 22RV1; assay: Cell viability, MTT assay, 22RV1; type: cell-based; conditions: Homo sapiens, 22RV1 (Prostate), 96 hr
Experimental: as §1, with “(Sample-Background)/(Control-Background).” for “(Sample-Background)/(Control-Background). Current standard of care drugs, Enzalutamide, Palbociclib and Cetuximab were used as comparative controls.”

[13] = target: T1, LIN28B/pre-let-7a-2 binding (Homo sapiens, UniProt Q6ZN17); assay: FRET assay, EGFP-tagged LIN28B and BHQ-1 labelled pre-let-7a-2; conditions: doses 1.25 uM-20 uM; compared with LN1632
T1 construct: made in house; host or cells: stably transduced HEK cells; used as diluted protein lysate, not purified
T1 sequence (Q6ZN17 1-250): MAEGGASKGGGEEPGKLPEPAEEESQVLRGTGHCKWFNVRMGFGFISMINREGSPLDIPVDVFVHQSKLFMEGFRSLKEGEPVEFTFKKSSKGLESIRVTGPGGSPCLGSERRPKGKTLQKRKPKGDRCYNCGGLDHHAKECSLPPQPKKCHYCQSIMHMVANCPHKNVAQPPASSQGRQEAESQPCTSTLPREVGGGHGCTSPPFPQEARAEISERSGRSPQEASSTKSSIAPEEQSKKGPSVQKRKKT
Experimental: As described herein, compounds of formula (I) and (II) show Lin28/let-7 inhibitory activity in FRET assays in vitro and in LSCs and LSC-like Kasumi-1 cells. FRET assay was performed as previously described (51).
In order to improve binding and inhibitory capacity of a compound to LIN28b, we predicted the binding mode of LN1632 to LIN28B. […] With this model in hand, we synthesized novel compounds with improved binding capacity to Lin28b (JGJ002-JGJ008, FIG. 8). Compounds were screened using a previously described FRET-assay with an EGFP-tagged LIN28B as donor and a BHQ-1 quencher labelled pre-let-7a-2 (pre-let-7a-2-BHQ1) as acceptor (51). Briefly, recombinant LIN28B-EGFP was harvested from stably transduced HEK cells and diluted with binding buffer (300 mM NaCl, 25 mM HEPES pH 7.2, 10 μM ZnCl2, 1% Odyssey Blocking Buffer, 0.05% Tween 20, 0.5 mM TCEP) in order to adjust ideal FRET-quenching signal intensity. Protein lysate and compounds (JGJ001-JGJ008) were pre-incubated in doses ranging from 1.25 uM-20 uM for 20 min in 100 uL diluted protein lysate. Subsequently pre-let-7a-2-BHQ1 was added to the mixture (at 6.25 nM) and EGFP-LIN28B donor emission was measured using a Tecan Spark Plate Reader ([…], excitation at 488 nm, emission read-out at […], 30 flashes/s). […] Increased endogenous let-7 miRNA levels can target a panoply of LCS and cancer stem cell hallmark genes thus inhibiting tumor growth.
as §3

[14] = test system: A549; assay: Cell viability, MTT assay, A549; type: cell-based; conditions: Homo sapiens, A549 (Lung)
Experimental: as §1, with “(Sample-Background)/(Control-Background).” for “(Sample-Background)/(Control-Background). Current standard of care drugs, Enzalutamide, Palbociclib and Cetuximab were used as comparative controls.”

[15] = test system: H1975; assay: Cell viability, MTT assay, H1975; type: cell-based; conditions: Homo sapiens, NCI-H1975, H1975 (Lung)
Experimental: as §1, with “(Sample-Background)/(Control-Background).” for “(Sample-Background)/(Control-Background). Current standard of care drugs, Enzalutamide, Palbociclib and Cetuximab were used as comparative controls.”

[16] = test system: MDA-MB231; assay: Cell viability, MTT assay, MDA-MB231; type: cell-based; conditions: Homo sapiens, MDA-MB-231, MDA-MB231 (Breast)
Experimental: as §1

[17] = test system: 22Rv1 cells; assay: 22Rv1 cell counting; type: cell-based; conditions: 2 μM JGJ023 vs 42 μM Enzalutamide, day +5, +7, +9
Experimental: as §2

[18] = test system: H1568; assay: Cell viability, MTT assay, H1568; type: cell-based; conditions: NCI-H1568, H1568 (Lung)
Experimental: as §1

[19] = test system: MCF7; assay: Cell viability, MTT assay, MCF7; type: cell-based; conditions: Homo sapiens, MCF7 (Breast)
Experimental: as §1

[20] = test system: H460; assay: Cell viability, MTT assay, H460; type: cell-based; conditions: Homo sapiens, NCI-H460, H460 (Lung)
Experimental: as §1

[21] = test system: BT-549; assay: Cell viability, MTT assay, BT-549; type: cell-based; conditions: Homo sapiens, BT-549 (Breast)
Experimental: as §1

[22] = test system: H23; assay: Cell viability, MTT assay, H23; type: cell-based; conditions: Homo sapiens, NCI-H23, H23 (Lung)
Experimental: as §1

[23] = test system: DU145; assay: Cell viability, MTT assay, DU145; type: cell-based; conditions: Homo sapiens, DU-145, DU145 (Prostate)
Experimental: as §1

SMILES | IC50 [1] [µM] | IC50 [2] [µM] | IC50 [4] [µM] | Upregulation of mature let-7 miRNAs [7] | IC50 [9] [µM] | IC50 [10] [µM] | IC50 [11] [µM] | IC50 [12] [µM] | Inhibition of LIN28B binding to pre-let-7a (FRET signal) [13] | other results
CC(=O)Nc1cccc(-c2ccc3[nH]cc(-c4ccccc4)c3n2)c1 [JGJ034, N-(3-(3-Phenyl-1H-pyrrolo[3,2-b]pyridin-5-yl)phenyl)acetamide] | 43 | 85 | 3 | upregulated mature let-7 miRNAs at significantly lower doses than LN1632 | 3 | 2 | 3 | 1 | inhibit LIN28's RNA-binding capacity significantly more than compound LN1632 | Proliferation and apoptosis of cancer cells [3]: reduced proliferation and induced apoptosis preferentially in MYC-driven cancers; IC50 [5]: 41 µM; IC50 [6]: 2 µM; IC50 [8]: 33 µM
CC(=O)Nc1cccc(-c2ccc3ncc(-c4ccccc4)n3n2)c1 [JGJ023, N-(3-(3-Phenylimidazo[1,2-b]pyridazin-6-yl)phenyl)acetamide] | 215 | 51 | 6 | upregulated mature let-7 miRNAs at significantly lower doses than LN1632 | 27 | 8 | 17 | 2 | inhibit LIN28's RNA-binding capacity significantly more than compound LN1632 | IC50 [14]: 20 µM; IC50 [15]: 8 µM; IC50 [16]: 61 µM; Apoptosis and cell numbers [17]: induces apoptosis and reduces cell numbers of mCRPC compared to Enzalutamide; IC50 [18]: 12 µM; IC50 [19]: 38 µM; IC50 [20]: 124 µM; IC50 [21]: 7 µM; IC50 [22]: 94 µM; IC50 [23]: 3 µM
